Consider 30 compounds from publication PMC12990037, “Discovery of Two Structurally Distinct Classes of Inhibitors Targeting the Nuclease MUS81 and Enhancing Efficacy of Chemotherapy in Cancer Cells” (Journal of Medicinal Chemistry, 2026).

Broadly, the IC50 is the midpoint of a concentration-inhibition curve. Read a low IC50 as inhibition by little substance.

The subject of data set [1] is U2OS cells. In words: EdU/PI cell cycle assay. It is filed as cell-based. The note with it: CPT 100 μM for the last 16 h. As for the experimental part: (§1) Given these promising findings, we further investigated the specificity of MU262 and MU876 and potential short-term cytotoxicity. To mirror the treatment duration used in BIR and HR assays, U2OS cells were exposed to the inhibitors or siRNA for 3 days.
U2OS WT cells (300,000) were seeded in a 6-well plate; a subset of them was treated with either control siRNA or siRNA targeting MUS81. After adhesion, cells were treated with the respective inhibitors for 72 h during which CPT ([…], Sigma-Aldrich) was added for the last 16 h and 10 μM EdU (Sigma-Aldrich) was added for the last 1 h. Cells were then harvested and stained by using the Click-iT EdU Alexa Fluor 647 Flow Cytometry Assay Kit (Thermo Fisher Scientific). Finally, cells were resuspended in 1xPBS containing 5 μg/mL of propidium iodide (PI) and analyzed using a BD FACSVerse flow cytometer (Becton Dickinson) and FlowJo software (BD Life Sciences). At least 20,000 cells were used for each measurement, and experiments were performed in duplicates.

Data set [2] relates to U2OS cells. In words: Annexin V apoptotic assay. It is filed as cell-based. The note with it: CPT 100 μM for the last 2 h. How it is done:
as §1
U2OS WT cells (300,000) were seeded in a 6-well plate, a subset of them was treated with either control siRNA or siRNA targeting MUS81. After adhesion, cells were treated with the respective inhibitors for 72 h during which CPT (100 μM, Sigma-Aldrich) was added for the last 2 h. Cells were harvested, washed in ice-cold PBS, and collected by centrifugation at 500g for 5 min. Cells were simultaneously stained with FITC-labeled annexin V antibody (556419, Becton Dickinson) and PI (5 μL) at room temperature for 15 min, protected from light. Stained cells were analyzed using a BD FACSVerse flow cytometer (Becton Dickinson) and FlowJo software (BD Life Sciences). At least 20,000 cells were used for each measurement, and experiments were performed in duplicates.

Data set [3] deals with T1, MUS81–EME1 (Homo sapiens, UniProt Q96NY9).
T1 construct: The MUS81–EME1 full-length expression plasmid was obtained from Stephen C; West; made in house; host or cells: Escherichia coli
T1 sequence (Q96NY9 1-551): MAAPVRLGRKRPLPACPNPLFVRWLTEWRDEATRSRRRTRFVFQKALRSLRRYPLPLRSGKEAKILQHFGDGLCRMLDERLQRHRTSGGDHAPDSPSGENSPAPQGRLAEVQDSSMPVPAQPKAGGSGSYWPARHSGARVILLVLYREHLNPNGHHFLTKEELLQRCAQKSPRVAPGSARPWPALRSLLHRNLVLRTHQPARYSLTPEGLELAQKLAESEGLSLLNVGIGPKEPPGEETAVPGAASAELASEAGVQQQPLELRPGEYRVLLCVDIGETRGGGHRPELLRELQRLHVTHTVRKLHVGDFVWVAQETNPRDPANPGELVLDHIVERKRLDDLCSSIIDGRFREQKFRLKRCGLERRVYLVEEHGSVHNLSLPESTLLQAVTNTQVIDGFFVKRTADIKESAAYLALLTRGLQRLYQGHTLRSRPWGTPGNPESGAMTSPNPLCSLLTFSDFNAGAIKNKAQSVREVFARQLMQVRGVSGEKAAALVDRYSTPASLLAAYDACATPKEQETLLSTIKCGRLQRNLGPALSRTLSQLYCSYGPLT
T1 sequence (Q96AY2 1-570 partner): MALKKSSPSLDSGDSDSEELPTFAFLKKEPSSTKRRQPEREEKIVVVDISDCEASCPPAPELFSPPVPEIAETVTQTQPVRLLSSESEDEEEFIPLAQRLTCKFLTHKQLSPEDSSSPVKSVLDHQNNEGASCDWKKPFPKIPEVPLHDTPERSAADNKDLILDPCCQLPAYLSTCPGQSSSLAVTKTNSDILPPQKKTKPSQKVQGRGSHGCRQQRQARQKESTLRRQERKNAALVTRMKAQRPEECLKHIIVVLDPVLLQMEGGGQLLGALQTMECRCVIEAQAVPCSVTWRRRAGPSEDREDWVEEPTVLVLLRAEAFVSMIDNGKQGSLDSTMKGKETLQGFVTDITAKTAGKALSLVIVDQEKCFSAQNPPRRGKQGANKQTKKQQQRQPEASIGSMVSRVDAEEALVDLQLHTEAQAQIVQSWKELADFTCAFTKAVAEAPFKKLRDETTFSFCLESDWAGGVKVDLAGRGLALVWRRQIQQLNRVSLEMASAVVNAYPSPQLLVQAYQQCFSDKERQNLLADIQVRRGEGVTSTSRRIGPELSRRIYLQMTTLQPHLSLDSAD
As to the kind of experiment: Gel-based in vitro nuclease assay: cleavage of 3′flap DNA by purified MUS81–EME1. It is filed as biochemical. The conditions noted are these: for activity in the in vitro assay: negative control compounds. As for the experimental part:
To identify the small-molecule inhibitors of MUS81, we used two complementary screening approaches. The first involved a structure-based virtual screening, where over 140,000 small molecules were docked into the active site of MUS81 using AutoDock Vina software. […] The cleavage by purified MUS81-EME1 was monitored by gel electrophoresis, and the compound activity was quantified by measuring the reduction in cleavage product intensity.
Nuclease assays were performed in reaction buffer containing 50 mM Tris pH 7.5, 10 mM MgCl2, 1 mM DTT, 85 mM KCl, and 20% glycerol. Purified MUS81–EME1 (1 nM) was preincubated in 9 μL reaction with indicated concentrations of inhibitors for 15 min at room temperature, followed by the addition of 3 nM of a 3′flap DNA substrate (listed in Supplementary Table 9) and a further incubation for 15 min at 37 °C. The final concentration of DMSO in the reactions was 2%. The reactions were stopped by the addition of 0.1% SDS and 500 μg/mL of proteinase K, followed by incubation for 5 min at 37 °C. […] The fluorescent DNA was visualized using a FLA-9000 (Fujifilm). Bands corresponding to cleaved substrates were selected for quantification using the MultiGauge 3.2 software. Final data represent integrated density of these bands with background subtraction. Fitting of the data with sigmoid curves was performed in OriginPro (OriginLab).

Data set [4] can be described thus: Solubility in aqueous DMSO. It is filed as physicochemical.
The target in data set [5] is T2, MUS81–EME1 binding to 3′ flap DNA substrate (Homo sapiens, UniProt Q96NY9).
T2 construct: The MUS81–EME1 full-length expression plasmid was obtained from Stephen C; West; made in house; host or cells: Escherichia coli
T2 sequence (Q96NY9 1-551): T1 sequence (Q96NY9 1-551)
T2 sequence (Q96AY2 1-570 partner): T1 sequence (Q96AY2 1-570 partner)
In words: Electrophoretic mobility shift assay (EMSA). The note with it: MUS81–EME1 160 nM, no MgCl2. For orientation: Mobility shift assays separate free from complexed probe on a gel.
Description: (A,B) Purified MUS81–EME1 (160 nM) was incubated with increasing concentrations of MU262, MU876, or their respective control analogues, followed by the addition of 3 nM fluorescently labeled 3′ flap DNA substrate. MgCl2 was omitted from the reaction buffer to prevent substrate cleavage. The reaction products were resolved on a native PAGE gel. The lower band represents a free DNA substrate, while the upper smear corresponds to the MUS81–DNA complex. n = 3.
Purified MUS81–EME1 (160 nM) was incubated in a modified assay buffer without MgCl2 (50 mM Tris–HCl pH 7.4, 150 mM NaCl, and 0.05% Tween-20) with 15 nM of a 3′flap DNA substrate (listed in Supplementary Table 5) in the absence or presence of selected inhibitors at RT for 10 min, followed by an incubation at 25 °C for 10 min. The reaction was stopped on ice and products were resolved using native PAGE (7.5% acrylamide gel in 0.5% TBE) at 4 °C for 50 min (6.5 V/cm). Gel images were captured using a FLA-9000 (Fujifilm) and Typhoon (Amersham) scanners and quantified with Multi Gauge V3.2 software (Fujifilm).

Bounds are passed on as bounds.

In the case of `CC[C@@]1(O)C(=O)OCc2c1cc1n(c2=O)Cc2cc3ccccc3nc2-1` [CPT, camptothecin, reference compound], the cell cycle profile result in data set [1] is “reduced the proportion of S phase cells”. Further, the “apoptosis (Annexin V staining)” value in data set [2] was “robust apoptosis”. In data set [3] (Table 1, in vitro), `Nc1c(-c2nc3ccccc3[nH]2)nnc2ccnn12` [Compound 3] yielded an IC50 of over 50 µM. Take `Nc1c(-c2nc3ccccc3[nH]2)nnc2c(-c3ccc(F)cc3)cnn12` [Compound 4]: in data set [3] (Table 1, in vitro), the IC50 was over 50 µM. `CCc1cc2nnc(-c3nc4ccccc4[nH]3)c(N)n2n1` [Compound 5] registered an IC50 in data set [3] (Table 1, in vitro) of over 5 µM. `CCc1nn2c(N)c(-c3nc4ccccc4[nH]3)nnc2c1-c1ccc(OC)cc1` [Compound 7] had an IC50 in data set [3] (Table 1, in vitro) of over 25 µM.

For `Nc1c(-c2nc3ccccc3[nH]2)nnc2cc(-c3cccc4ccccc34)nn12` [Compound 12], the IC50 in data set [3] (Table 1, in vitro) came out at 1.8 µM. Moreover, the “solubility in aqueous DMSO” value in data set [4] is recorded as “only sparingly soluble in aqueous DMSO”.

In the case of `Nc1c(-c2nc3ccccc3[nH]2)nnc2cc(-c3ccccc3Oc3ccccc3)nn12` [Compound 13], the “solubility in aqueous DMSO” value in data set [4] is listed as “only sparingly soluble in aqueous DMSO”. With `Nc1c(-c2nc3ccccc3[nH]2)nnc2cc(-c3ccc4ccccc4c3)nn12` [Compound 14], in data set [4], the “solubility in aqueous DMSO” value is given as “only sparingly soluble in aqueous DMSO”. Still for that read-out and setting: the value for `Nc1c(-c2nc3ccccc3[nH]2)nnc2cc(-c3ccccc3)nn12` [Compound 15] was “only sparingly soluble in aqueous DMSO”.

Regarding `CCc1nn2cc(-c3nc4ccccc4[nH]3)nnc2c1-c1ccc(F)cc1` [Compound 16], in data set [3] (Table 1, in vitro), the IC50 was over 10 µM. Regarding `CCc1nn2c(C)c(-c3nc4ccccc4[nH]3)nnc2c1-c1ccc(F)cc1` [Compound 17], in data set [5], the “effect on MUS81–EME1 binding to 3′ flap DNA (EMSA)” value was “neither MU262 nor its inactive analogue MU1066 disrupted the MUS81–DNA interaction”. In data set [3] (Table 1, in vitro), this compound returned an IC50 of over 10 µM. Further, in data set [3], the “activity in the in vitro assay” value is reported as “no activity”. In turn, `CCc1nn2c(O)c(-c3ncccn3)nnc2c1-c1ccc(F)cc1` [Compound 20] yielded an IC50 in data set [3] (Table 1, in vitro) of over 40 µM. In data set [3] (Table 1, in vitro), `CCc1nn2c(N)c(C(N)=O)nnc2c1-c1ccc(F)cc1` [Compound 21] had an IC50 of over 50 µM. As for `CCc1nn2c(N)c(-c3nc4ccccc4n3Cc3ccccc3)nnc2c1-c1ccc(F)cc1` [Compound 22], in data set [3] (Table 1, in vitro), the IC50 worked out at 8 µM.

In data set [3] (Table 1, in vitro), `CCc1nn2c(O)c(-c3nc4ccccc4n3CCN(C)C)nnc2c1-c1ccc(F)cc1` [Compound 23] gave an IC50 of over 10 µM. Regarding `CCc1nn2c(O)c(-c3nc4ccccc4n3CCN3CCOCC3)nnc2c1-c1ccc(F)cc1` [Compound 24], the IC50 in data set [3] (Table 1, in vitro) was over 10 µM. `CCc1nn2c(O)c(-c3nccn3C)nnc2c1-c1ccc(F)cc1` [Compound 25] yielded an IC50 in data set [3] (Table 1, in vitro) of over 40 µM. In addition, the “activity in the in vitro assay” value in data set [3] was “no activity”.

On to `CCc1nn2c(N)c(-c3ncc[nH]3)nnc2c1-c1ccc(F)cc1` [Compound 27], for which, in data set [4], the “solubility in aqueous DMSO” value was “less soluble in aqueous DMSO”. As for `Cc1cc(=O)[nH]c(-n2nc(C3CCCCC3)cc2NC(=O)c2cc(-c3ccccc3)on2)n1` [Compound 34], the IC50 in data set [3] (Table 2, in vitro) is over 10 µM.

As to `Cc1cc(=O)[nH]c(-n2nc(-c3ccccc3)c(C)c2NC(=O)c2cc(-c3ccccc3)on2)n1` [Compound 35], the IC50 in data set [3] (Table 2, in vitro) is over 10 µM.

In the case of `Cc1cc(=O)[nH]c(-n2nc(-c3ccccc3)cc2NC(=O)c2cc(C3CCCCC3)on2)n1` [Compound 37], in data set [3] (Table 2, in vitro), the IC50 is over 10 µM. Compound `Cc1cc(=O)[nH]c(-n2nc(-c3ccccc3)cc2NC(=O)c2cc(-c3ccccc3Br)on2)n1` [Compound 38] displayed an IC50 in data set [3] (Table 2, in vitro) of over 10 µM. The compound `COc1ccc(-c2cc(C(=O)Nc3cc(-c4ccccc4)nn3-c3nc(C)cc(=O)[nH]3)no2)cc1` [Compound 40] returned an IC50 in data set [3] (Table 2, in vitro) of over 10 µM. Still for that read-out and setting: the value for `Cc1cc(=O)[nH]c(-n2nc(-c3ccccc3)cc2NC(=O)c2csc(-c3ccccc3)n2)n1` [Compound 42] was over 10 µM. For the compound `Cc1cc(=O)[nH]c(-n2nc(-c3ccccc3)cc2N(C)C(=O)c2cc(-c3ccccc3)on2)n1` [Compound 45], the “effect on MUS81–EME1 binding to 3′ flap DNA (EMSA)” value in data set [5] was “no significant effect”. In addition, in data set [3] (Table 2, in vitro), the IC50 is over 10 µM. In addition, the “activity in the in vitro assay” value in data set [3] is “no activity”. In data set [3] (Table 2, in vitro), `Cn1nc(-c2ccccc2)cc1NC(=O)c1cc(-c2ccccc2)on1` [Compound 46] gave an IC50 of over 10 µM. On the same count and under the same terms, the value for `O=C(Nc1cc(-c2ccccc2)nn1-c1ccccc1)c1cc(-c2ccccc2)on1` [Compound 47] was over 10 µM; that for `O=C(Nc1cc(-c2ccccc2)nn1-c1ncccn1)c1cc(-c2ccccc2)on1` [Compound 48] was over 10 µM; that for `COc1cc(C)nc(-n2nc(-c3ccccc3)cc2NC(=O)c2cc(-c3ccccc3)on2)n1` [Compound 49] was over 10 µM. Compound `COCc1cc(=O)[nH]c(-n2nc(-c3ccccc3)cc2NC(=O)c2cc(-c3ccccc3)on2)n1` [Compound 51] yielded an IC50 in data set [3] (Table 2, in vitro) of over 10 µM.
